From patent publication US8614201B2 (Janssen Pharmaceutica NV, priority 2009, dated 2013)

Target: Human TRPA1 (Homo sapiens, UniProt O75762)
Assay: Assay 1: In vitro cellular testing of TRPA1 modulation (CHO-TREx, Fluo-3 calcium fluorescence, AITC agonist)
Format: cell-based
Set-up: expressed in transfected cells; host or cells: CHO-TREx cells (Invitrogen), vector pcDNA4/TO
Conditions: CHO-TREx cells expressing human TRPA1; Fluo-3 fluorescence (FLIPR/Tetra); agonist 15 μM allyl isothiocyanate (AITC); 30 minute antagonist incubation
Procedure, shortened: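 Antagonist potency is the 50% reduction of the AITC (15 μM) calcium response, Hill-fitted against no-antagonist and 10 μM ruthenium red controls. Fluo-3-loaded (4 μM) CHO-TREx cells with tetracycline-inducible human TRPA1 got compound in HEPES saline pH 7.4 for 30 min, usually from 10 μM in three-fold dilutions.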

Sequence of Human TRPA1 (O75762 whole entry): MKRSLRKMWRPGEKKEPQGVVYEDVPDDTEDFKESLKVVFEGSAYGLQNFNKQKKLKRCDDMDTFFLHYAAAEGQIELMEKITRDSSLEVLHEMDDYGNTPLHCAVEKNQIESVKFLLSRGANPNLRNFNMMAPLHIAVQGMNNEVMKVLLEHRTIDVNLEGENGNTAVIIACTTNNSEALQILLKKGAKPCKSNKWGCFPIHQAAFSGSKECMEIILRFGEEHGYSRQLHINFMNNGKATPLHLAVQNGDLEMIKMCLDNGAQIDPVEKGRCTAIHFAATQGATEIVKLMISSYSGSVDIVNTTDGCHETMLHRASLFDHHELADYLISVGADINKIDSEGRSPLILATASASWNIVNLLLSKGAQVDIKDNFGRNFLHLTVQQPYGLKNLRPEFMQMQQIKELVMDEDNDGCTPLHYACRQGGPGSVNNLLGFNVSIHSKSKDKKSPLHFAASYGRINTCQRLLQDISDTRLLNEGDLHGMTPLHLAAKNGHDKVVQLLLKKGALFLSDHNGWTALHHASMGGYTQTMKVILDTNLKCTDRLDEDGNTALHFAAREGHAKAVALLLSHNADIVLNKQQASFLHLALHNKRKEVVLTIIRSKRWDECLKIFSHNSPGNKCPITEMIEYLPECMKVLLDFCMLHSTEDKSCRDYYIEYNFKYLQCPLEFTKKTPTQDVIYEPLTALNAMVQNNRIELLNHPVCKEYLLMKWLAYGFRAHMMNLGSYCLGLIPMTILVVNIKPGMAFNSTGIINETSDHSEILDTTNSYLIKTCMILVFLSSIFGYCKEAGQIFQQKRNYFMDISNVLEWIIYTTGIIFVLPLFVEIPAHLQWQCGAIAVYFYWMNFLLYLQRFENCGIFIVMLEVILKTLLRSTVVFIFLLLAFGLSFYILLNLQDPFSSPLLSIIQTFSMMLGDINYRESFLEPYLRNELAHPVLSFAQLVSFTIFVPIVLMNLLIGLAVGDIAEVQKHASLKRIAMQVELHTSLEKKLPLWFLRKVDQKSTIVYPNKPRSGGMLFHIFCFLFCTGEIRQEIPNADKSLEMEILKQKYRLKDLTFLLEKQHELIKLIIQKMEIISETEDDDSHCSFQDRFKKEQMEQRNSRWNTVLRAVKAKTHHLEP

| SMILES | IC50 [nM] |
| --- | --- |
| O=C(NCc1ccnc(-c2ccc(C(F)(F)F)cc2)n1)[C@@H]1CCCN1S(=O)(=O)c1ccc(F)cc1 [Example 187, (2S)-1-(4-Fluoro-benzenesulfonyl)-pyrrolidine-2-carboxylic acid [2-(4-trifluoromethyl-phenyl)-pyrimidin-4-ylmethyl]-amide] | 806 |
| O=C(NCc1cc(NCc2ccccc2)nc(-c2ccc(C(F)(F)F)cc2)c1)[C@@H]1C=CCN1S(=O)(=O)c1ccc(Cl)s1 [Example 320, (2S)—N-({2-(Benzylamino)-6-[4-(trifluoromethyl)phenyl]pyridin-4-yl}methyl)-1-[(5-chlorothiophen-2-yl)sulfonyl]-2,5-dihydro-1H-pyrrole-2-carboxamide] | 745 |
| O=C(NCc1cc(NCc2ccccc2)nc(-c2ccc(C(F)(F)F)cc2)c1)[C@@H]1C=CCN1S(=O)(=O)c1ccc(F)cc1 [Example 321, (2S)—N-({2-(Benzylamino)-6-[4-(trifluoromethyl)phenyl]pyridin-4-yl}methyl)-1-[(4-fluorophenyl)sulfonyl]-2,5-dihydro-1H-pyrrole-2-carboxamide] | 1020 |
| O=C(NCc1cc(NCc2ccccc2)nc(-c2ccc(C(F)(F)F)cc2)c1)[C@@H]1CCCN1S(=O)(=O)c1ccc(F)cc1 [Example 322, N-({2-(Benzylamino)-6-[4-(trifluoromethyl)phenyl]pyridin-4-yl}methyl)-1-[(4-fluorophenyl)sulfonyl]-L-prolinamide] | 1180 |
| O=C(NCc1cc(-c2ccc(C(F)(F)F)cc2)nc(N2CCN(c3ccccc3F)CC2)c1)[C@@H]1CCCN1S(=O)(=O)c1ccc(F)cc1 [Example 325, N-({2-[4-(2-Fluorophenyl)piperazin-1-yl]-6-[4-(trifluoromethyl)phenyl]pyridin-4-yl}methyl)-1-[(4-fluorophenyl)sulfonyl]-L-prolinamide] | 845 |
| O=C(NCc1cc(-c2ccc(C(F)(F)F)cc2)nc(N2CCN(c3ccccc3F)CC2)c1)[C@@H]1C=CCN1S(=O)(=O)c1ccc(F)cc1 [Example 326, (2S)—N-({2-[4-(2-Fluorophenyl)piperazin-1-yl]-6-[4-(trifluoromethyl)phenyl]pyridin-4-yl}methyl)-1-[(4-fluorophenyl)sulfonyl]-2,5-dihydro-1H-pyrrole-2-carboxamide] | 5970 |
| O=C(NCc1cc(-c2ccc(C(F)(F)F)cc2)nc(N2CCN(Cc3ccncc3)CC2)c1)[C@@H]1CCCN1S(=O)(=O)c1ccc(Cl)s1 [Example 327, 1-[(5-Chlorothiophen-2-yl)sulfonyl]-N-({2-[4-(pyridin-4-ylmethyl)piperazin-1-yl]-6-[4-(trifluoromethyl)phenyl]pyridin-4-yl}methyl)-L-prolinamide] | 587 |
| O=C(NCc1cc(-c2ccc(C(F)(F)F)cc2)nc(N2CCN(Cc3cccnc3)CC2)c1)[C@@H]1CCCN1S(=O)(=O)c1ccc(F)cc1 [Example 328, 1-[(4-Fluorophenyl)sulfonyl]-N-({2-[4-(pyridin-3-ylmethyl)piperazin-1-yl]-6-[4-(trifluoromethyl)phenyl]pyridin-4-yl}methyl)-L-prolinamide] | 682 |
| O=C(NCc1cc(-c2ccc(C(F)(F)F)cc2)nc(N2CCN(Cc3ccncc3)CC2)c1)[C@@H]1C=CCN1S(=O)(=O)c1ccc(F)cc1 [Example 329, (2S)-1-[(4-Fluorophenyl)sulfonyl]-N-({2-[4-(pyridin-4-ylmethyl)piperazin-1-yl]-6-[4-(trifluoromethyl)phenyl]pyridin-4-yl}methyl)-2,5-dihydro-1H-pyrrole-2-carboxamide] | 1760 |
| O=C(NCc1cc(NCc2ccccn2)nc(-c2ccc(C(F)(F)F)cc2)c1)[C@@H]1C=CCN1S(=O)(=O)c1ccc(Cl)s1 [Example 330, (2S)-1-[(5-Chlorothiophen-2-yl)sulfonyl]-N-({2-[(pyridin-2-ylmethyl)amino]-6-[4-(trifluoromethyl)phenyl]pyridin-4-yl}methyl)-2,5-dihydro-1H-pyrrole-2-carboxamide] | 604 |

The next compounds have a lower IC50 than those just listed; values first:

| IC50 [nM] | SMILES |
| --- | --- |
| 433 | O=C(NCc1nccc(-c2ccc(C(F)(F)F)cc2)n1)[C@@H]1CCCN1S(=O)(=O)c1ccc(F)cc1 [Example 185, (2S)-1-(4-Fluoro-benzenesulfonyl)-pyrrolidine-2-carboxylic acid [4-(4-trifluoromethyl-phenyl)-pyrimidin-2-ylmethyl]-amide] |
| 227 | O=C(NCc1nccc(-c2ccc(C(F)(F)F)cc2)n1)[C@@H]1CCCN1S(=O)(=O)c1ccc(Cl)s1 [Example 186] |
| 2 | O=C(NCc1cc(-c2ccc(C(F)(F)F)cc2)nc(N2CCC(Cc3ccccc3)CC2)n1)[C@@H]1CCCN1S(=O)(=O)c1ccc(F)cc1 [Example 189, 1-(4-Fluoro-benzenesulfonyl)-pyrrolidine-2S-carboxylic acid [2-(4-benzyl-piperidin-1-yl)-6-(4-trifluoromethyl-phenyl)-pyrimidin-4-ylmethyl]-amide] |
| 85 | O=C(NCc1cc(-c2ccc(C(F)(F)F)cc2)nc(NC2CCCC2)n1)[C@@H]1CCCN1S(=O)(=O)c1ccc(F)cc1 [Example 193, 1-(4-Fluoro-benzenesulfonyl)-pyrrolidine-2S-carboxylic acid [2-cyclopentylamino-6-(4-trifluoromethyl-phenyl)-pyrimidin-4-ylmethyl]-amide] |
| 16 | O=C(NCc1cc(-c2ccc(C(F)(F)F)cc2)nc(N2CCCC2)c1)[C@@H]1CCCN1S(=O)(=O)c1ccc(F)cc1 [Example 317, 1-(4-Fluoro-benzenesulfonyl)-pyrrolidine-S2-carboxylic acid [2-pyrrolidin-1-yl-6-(4-trifluoromethyl-phenyl)-pyridin-4-ylmethyl]-amide] |
| 29 | O=C(NCc1cc(-c2ccc(C(F)(F)F)cc2)nc(N2CCCCC2)c1)[C@@H]1CCCN1S(=O)(=O)c1ccc(F)cc1 [Example 318, 1-(4-Fluoro-benzenesulfonyl)-pyrrolidine-S2-carboxylic acid [6′-(4-trifluoromethyl-phenyl)-3,4,5,6-tetrahydro-2H-[1,2′]bipyridinyl-4′-ylmethyl]-amide] |
| 21 | O=C(NCc1cc(-c2ccc(C(F)(F)F)cc2)nc(N2CCCCC2)c1)[C@@H]1CCCN1S(=O)(=O)c1ccc(Cl)s1 [Example 319, 1-(5-Chloro-thiophene-2-sulfonyl)-pyrrolidine-S2-carboxylic acid [6′-(4-trifluoromethyl-phenyl)-3,4,5,6-tetrahydro-2H-[1,2′]bipyridinyl-4′-ylmethyl]-amide] |
| 510 | O=C(NCc1cc(NCc2ccccc2)nc(-c2ccc(C(F)(F)F)cc2)c1)[C@@H]1CCCN1S(=O)(=O)c1ccc(Cl)s1 [Example 323, N-({2-(Benzylamino)-6-[4-(trifluoromethyl)phenyl]pyridin-4-yl}methyl)-1-[(5-chlorothiophen-2-yl)sulfonyl]-L-prolinamide] |
| 412 | O=C(NCc1cc(-c2ccc(C(F)(F)F)cc2)nc(N2CCN(c3ccccc3F)CC2)c1)[C@@H]1CCCN1S(=O)(=O)c1ccc(Cl)s1 [Example 324, 1-[(5-Chlorothiophen-2-yl)sulfonyl]-N-({2-[4-(2-fluorophenyl)piperazin-1-yl]-6-[4-(trifluoromethyl)phenyl]pyridin-4-yl}methyl)-L-prolinamide] |
| 176 | CN(C)c1cc(CNC(=O)[C@@H]2CCCN2S(=O)(=O)c2ccc(F)cc2)cc(-c2ccc(C(F)(F)F)cc2)n1 [Example 331, N-({2-(Dimethylamino)-6-[4-(trifluoromethyl)phenyl]pyridin-4-yl}methyl)-1-[(4-fluorophenyl)sulfonyl]-L-prolinamide] |
